We go through 23 molecules from ChEMBL document CHEMBL1138844, “Synthesis and biological evaluation of 1-aryl-4,5-dihydro-1H-pyrazolo[3,4-d]pyrimidin-4-one inhibitors of cyclin-dependent kinases” (J Med Chem, 2004).

In series [1] the target is Cyclin-dependent kinase 1/cyclin B (Homo sapiens, UniProt P06493). As to the kind of experiment: Inhibition of Cyclin-dependent kinase 1-cyclin B. It is filed as protein-complex assay.
The target of series [2] is T1, Cyclin-dependent kinase 4/cyclin D1 (Homo sapiens, UniProt P11802). As to the kind of experiment: Inhibition of Cyclin-dependent kinase 4-cyclin D1. It counts as protein-complex assay.
T1 sequence (P11802 whole entry): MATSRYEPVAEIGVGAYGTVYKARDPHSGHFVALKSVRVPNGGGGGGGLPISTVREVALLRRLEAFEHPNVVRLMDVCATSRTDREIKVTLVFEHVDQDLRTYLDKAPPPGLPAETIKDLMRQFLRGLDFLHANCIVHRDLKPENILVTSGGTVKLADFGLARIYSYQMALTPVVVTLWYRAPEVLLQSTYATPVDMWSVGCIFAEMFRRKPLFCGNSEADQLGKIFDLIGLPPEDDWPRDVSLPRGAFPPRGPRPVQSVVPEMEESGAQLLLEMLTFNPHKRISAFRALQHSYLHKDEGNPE
T1 sequence (P24385 whole entry, further chain): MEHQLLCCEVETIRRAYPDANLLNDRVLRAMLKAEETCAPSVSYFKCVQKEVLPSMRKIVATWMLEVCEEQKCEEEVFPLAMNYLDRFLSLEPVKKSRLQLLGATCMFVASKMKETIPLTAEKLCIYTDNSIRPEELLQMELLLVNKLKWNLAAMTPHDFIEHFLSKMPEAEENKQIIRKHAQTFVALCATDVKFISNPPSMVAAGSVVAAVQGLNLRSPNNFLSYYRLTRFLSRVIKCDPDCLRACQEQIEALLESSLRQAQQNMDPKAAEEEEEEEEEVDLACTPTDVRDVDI
The test system of series [3] is HCT-116. As to the kind of experiment: Inhibition of human colon carcinoma cell (HCT116) proliferation. It counts as functional, cell-based.
Series [4] addresses Cyclin-dependent kinase 2/cyclin E (Homo sapiens, UniProt P24941).
Description: Inhibition of Cyclin-dependent kinase 2-cyclin E
A short description of series [5]: Partition coefficient (logP). It counts as physicochemical. Particulars: octanol/water.
Series [6] has as its system HCT-116. As to the kind of experiment: Concentration required for growth inhibition of human colon carcinoma cell line HCT116. It is filed as functional, cell-based.
A short description of series [7]: Inhibitory concentration against NCI H460 cell line was determined. It counts as functional, cell-based, Homo sapiens.
The next series has as its system COLO 205. As to the kind of experiment: Inhibitory concentration against human colon cell line COLO 205 was determined. It is filed as functional, cell-based.
For series [8], the system named is HCT-116. As to the kind of experiment: Inhibitory concentration against human colon cell line HCT116 was determined. It is filed as functional, cell-based.
The nature of series [9]: Inhibitory concentration against human breast cell line MDA MB468 was determined. It is filed as functional, cell-based. The note with it: mda-mb-468.
The subject of another series is MCF7. As to the kind of experiment: Inhibitory concentration against human breast cell line MCF-7 was determined. It is filed as functional, cell-based.
In the next series the test system is T47D. As to the kind of experiment: Inhibitory concentration against human breast cell line T47D was determined. It is filed as functional, cell-based.
The subject of a further series is A498. As to the kind of experiment: Inhibitory concentration against human kidney cell line A498 was determined. It is filed as functional, cell-based.
In another series the test system is DU-145. As to the kind of experiment: Inhibitory concentration against human prostate cell line DU145 was determined. It is filed as functional, cell-based.
Series [10] is described as follows: Inhibition of Protein Kinase A activity.
Another series relates to AG1523. As to the kind of experiment: Concentration required for growth inhibition of human fibroblast cell line Ag 1523. It counts as functional, cell-based.
The target in series [11] is T1, Cyclin-dependent kinase 4/cyclin D1. As to the kind of experiment: Inhibition of Cyclin-dependent kinase 4/cyclin D1. It is filed as protein-complex assay.
For series [12], the target named is Tyrosine-protein kinase ABL1 (Homo sapiens, UniProt P00519).
Chain of Tyrosine-protein kinase ABL1 (P00519 whole entry): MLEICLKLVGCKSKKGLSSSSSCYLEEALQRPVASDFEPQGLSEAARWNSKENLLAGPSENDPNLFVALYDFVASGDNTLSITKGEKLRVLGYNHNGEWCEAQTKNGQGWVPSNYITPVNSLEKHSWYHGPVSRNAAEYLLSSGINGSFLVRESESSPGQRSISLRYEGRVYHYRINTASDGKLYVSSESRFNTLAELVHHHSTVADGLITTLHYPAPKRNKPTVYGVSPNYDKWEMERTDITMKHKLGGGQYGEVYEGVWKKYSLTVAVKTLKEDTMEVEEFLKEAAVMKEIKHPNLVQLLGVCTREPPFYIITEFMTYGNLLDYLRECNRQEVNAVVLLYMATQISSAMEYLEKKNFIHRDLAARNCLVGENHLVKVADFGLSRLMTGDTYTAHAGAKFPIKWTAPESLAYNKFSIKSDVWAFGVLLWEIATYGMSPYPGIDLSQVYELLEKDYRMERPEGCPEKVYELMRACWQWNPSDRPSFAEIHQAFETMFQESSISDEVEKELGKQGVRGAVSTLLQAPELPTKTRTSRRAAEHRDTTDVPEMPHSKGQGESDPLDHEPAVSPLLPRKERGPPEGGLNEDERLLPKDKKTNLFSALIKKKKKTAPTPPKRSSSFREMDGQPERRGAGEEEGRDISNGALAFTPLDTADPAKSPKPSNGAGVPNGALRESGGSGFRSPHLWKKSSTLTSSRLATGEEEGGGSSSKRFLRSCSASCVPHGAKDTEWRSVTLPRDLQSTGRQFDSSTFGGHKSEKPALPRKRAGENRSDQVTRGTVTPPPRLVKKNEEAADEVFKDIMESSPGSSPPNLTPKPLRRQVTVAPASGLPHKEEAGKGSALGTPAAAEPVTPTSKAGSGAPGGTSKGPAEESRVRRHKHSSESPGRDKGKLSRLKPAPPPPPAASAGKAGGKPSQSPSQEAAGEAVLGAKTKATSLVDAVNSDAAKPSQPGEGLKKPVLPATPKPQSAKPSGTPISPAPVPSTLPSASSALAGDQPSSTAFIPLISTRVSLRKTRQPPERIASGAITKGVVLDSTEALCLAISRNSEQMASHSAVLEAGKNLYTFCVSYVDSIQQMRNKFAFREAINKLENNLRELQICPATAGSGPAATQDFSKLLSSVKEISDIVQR
Description: Inhibition of c-Abl tyrosine kinase activity

The IC50 is the concentration that gives 50% inhibition. High values mean weaker potency, low ones greater potency. For the molecule `CCc1nn(-c2c(Cl)cc(Cl)cc2Cl)c2nc(Cc3cccc(O)c3)[nH]c(=O)c12`, the IC50 in [1] came to 190 nM; in [2], 60 nM; in the series with HCT-116 [3], 400 nM; in [4], 10 nM.
Broadly, the logP is the decadic logarithm of the partition coefficient of the neutral form, usually between octanol and water. Low values mean lower lipophilicity, high ones higher lipophilicity. With `CCc1nn(-c2c(Cl)cc(Cl)cc2Cl)c2nc(Cc3ccc(NC(=O)CNC(=O)OC(C)(C)C)cc3)[nH]c(=O)c12`, the IC50 in series [1] worked out at 180 nM; in series [2], 1700 nM; with HCT-116 [3] it was 160 nM; in series [4] it was 10 nM. The molecule further registered a logP in series [5] of 4.9.
Regarding `CCc1nn(-c2c(Cl)cc(Cl)cc2Cl)c2nc(Cc3ccc(OC)c(OC)c3)[nH]c(=O)c12`, the IC50 in series [1] is above 510 nM; in series [2], 4500 nM; in the series with HCT-116 [3], 610 nM; in series [4], 110 nM.
As for `CCc1nn(-c2c(Cl)cc(Cl)cc2Cl)c2nc(Cc3ccc(NC(=O)CN)cc3)nc(O)c12`, the IC50 in series [1] amounted to 70 nM; in [2], 460 nM; with HCT-116 [3], 120 nM; in series [4], 10 nM. The same molecule showed a logP in series [5] of 3.3.
With `CCc1nn(-c2c(Cl)cc(Cl)cc2Cl)c2nc(Cc3ccc(OC)cc3)[nH]c(=O)c12`, the IC50 amounted to 150 nM in series [1], 2200 nM in [2], 600 nM in the series with HCT-116 [3] and 10 nM in series [4].
Molecule `CN[C@@H]1C[C@H]2O[C@@](C)([C@@H]1OC)n1c3ccccc3c3c4c(c5c6ccccc6n2c5c31)C(=O)NC4` [STAUROSPORINE] registered an IC50 with HCT-116 [6] of 6 nM.
For the molecule `CCc1nn(-c2c(Cl)cc(Cl)cc2Cl)c2nc(Cc3cccc(OC)c3)[nH]c(=O)c12`, the IC50 was 410 nM in [1], 5000 nM in [2], 1700 nM in the series with HCT-116 [3] and 30 nM in series [4].
Regarding `CCc1nn(-c2c(Cl)cc(Cl)cc2Cl)c2nc(Cc3ccc(N)cc3)[nH]c(=O)c12`, the IC50 in series [1] was 150 nM; in [2] it was 2700 nM; with HCT-116 [3], 420 nM; in series [4] it was 10 nM. In [5], this molecule returned a lipophilicity (logP) of 3.8.
As to `CCc1nn(-c2c(Cl)cc(Cl)cc2Cl)c2nc(Cc3cccc(N)c3)[nH]c(=O)c12`, the IC50 was 270 nM in series [1], 2900 nM in series [2], 470 nM in the series with HCT-116 [3] and 40 nM in series [4].
`CN(C)c1ccc(C(=C2C=CC(=[N+](C)C)C=C2)c2ccc(N(C)C)cc2)cc1.CN(C)c1ccc(C(=C2C=CC(=[N+](C)C)C=C2)c2ccc(N(C)C)cc2)cc1.CN=C1C=CC(=C(c2ccc(N(C)C)cc2)c2ccc(N(C)C)cc2)C=C1`: the IC50 was found to be 100 nM in [1]; 590 nM in [2]; 30 nM with HCT-116 [3]; 16 nM in [7]; 13 nM with COLO 205; 34 nM in the series with HCT-116 [8]. Further, the IC50 in series [9] was 12 nM; in the series on MCF7, 14 nM; in the series with T47D, 16 nM; in the series on A498, 57 nM; with DU-145, 15 nM; in series [4], 10 nM. Moreover, the logP in [5] amounted to 4.2.
Consider `CCc1nn(-c2c(Cl)cc(Cl)cc2Cl)c2nc(Cc3ccc(C)c(O)c3)[nH]c(=O)c12`, for which the IC50 in [1] amounted to 520 nM; in [2], 80 nM; with HCT-116 [3], 670 nM; in series [4], 20 nM.
For `CCc1nn(-c2c(Cl)cc(Cl)cc2Cl)c2nc(Cc3ccc(N(C)C)cc3)[nH]c(=O)c12`, in that order: above 260 nM, above 2100 nM, 340 nM and 20 nM.
For `CCc1nn(-c2c(Cl)cc(Cl)cc2Cl)c2nc(Cc3cccc(C)c3)[nH]c(=O)c12`, in that order: above 560 nM, above 2200 nM, 2100 nM and 390 nM.
For the molecule `CCc1nn(-c2c(Cl)cc(Cl)cc2Cl)c2nc(Cc3ccccc3)[nH]c(=O)c12`, the IC50 in series [1] came out at 260 nM; in [2] it was 3000 nM; with HCT-116 [3], 600 nM; in series [4] it was 20 nM.
On to `CCc1nn(-c2c(Cl)cc(Cl)cc2Cl)c2nc(Cc3ccc(O)c(C)c3)[nH]c(=O)c12`, for which the half-maximal inhibitory concentration (IC50) was above 270 nM in [1], above 2200 nM in series [2], 500 nM in the series on HCT-116 [3] and 20 nM in series [4].
With `CN1CCC(c2c(O)cc(O)c3c(=O)cc(-c4ccccc4Cl)oc23)[C@@H](O)C1` (mixture of isomers), the figures for the IC50 (in [10]; in the series with AG1523; in the series on HCT-116 [6]) were above 500000 nM, 6700 nM and 490 nM, respectively.
Consider `CCc1nn(-c2c(Cl)cc(Cl)cc2Cl)c2nc(Cc3ccc(O)cc3)[nH]c(=O)c12`, for which the IC50 in [1] was found to be 100 nM; in series [2], 2000 nM; in the series with HCT-116 [3], 90 nM; in [4], 10 nM.
Turning to `CCc1nn(-c2c(Cl)cc(Cl)cc2Cl)c2nc(Cc3ccccc3CO)[nH]c(=O)c12`, the IC50 in series [1] was above 270 nM; in [2], 2900 nM; in the series on HCT-116 [3], 490 nM; in [4], 20 nM.
Consider `CCc1nn(-c2c(Cl)cc(Cl)cc2Cl)c2nc(Cc3ccc(NC(C)=O)cc3)[nH]c(=O)c12`, for which the IC50 in series [1] was found to be 30 nM; in [2] it was 1300 nM; in the series on HCT-116 [3], 20 nM; in series [4], 9 nM. Further, the logP in series [5] was 3.9.
On to `CCc1nn(-c2c(Cl)cc(Cl)cc2Cl)c2nc(Cc3ccc(OC)c(O)c3)[nH]c(=O)c12`, for which the IC50 amounted to 200 nM in series [1], 20 nM in series [2], 130 nM with HCT-116 [3] and 10 nM in series [4].
Turning to `CCc1nn(-c2c(Cl)cc(Cl)cc2Cl)c2nc(Cc3ccc(OC)c(C)c3)[nH]c(=O)c12`, the half-maximal inhibitory concentration (IC50) in series [1] is 870 nM; in series [2], above 2100 nM; in the series on HCT-116 [3], 2100 nM; in [4], 60 nM.
In the case of `CSc1nn(-c2c(Cl)cc(Cl)cc2Cl)c2nc(C)[nH]c(=O)c12`, the IC50 in series [10] is above 500000 nM; in series [1], 6200 nM; in series [2], 2100 nM; in series [11] it was 2100 nM; with AG1523, 9200 nM; in the series with HCT-116 [6], 2500 nM. For the same molecule, the IC50 in [12] turned out to be 420000 nM; in series [4], 360 nM.
As for `CCc1nn(-c2c(Cl)cc(Cl)cc2Cl)c2nc(Cc3ccncc3)[nH]c(=O)c12`, the IC50 is 490 nM in series [1], 3000 nM in series [2], 550 nM with HCT-116 [3] and 30 nM in [4].
